Source: the NIST ThermoML archive (doi:10.1021/je7002836)

Key:
[1] = xn = mol fraction of the nth substance listed; conditions: 101 kPa, Liquid
[2] = molar heat capacity at constant pressure; xn = mol fraction of the nth substance listed; conditions: 101 kPa, Liquid

C[N+](=O)[O-] [nitromethane] + CCCC[n+]1cccc(C)c1.F[B-](F)(F)F
Conditions | mass density, [1] [kg/m3] | molar heat capacity at constant pressure, [2] [J/K/mol]
293.15 K, x2 = 0 | 1140.2 | 106.6
293.15 K, x2 = 0.0517 | 1153.4 | 120.3
293.15 K, x2 = 0.1038 | 1161.5 | 134.2
293.15 K, x2 = 0.1952 | 1170.3 | 159.9
293.15 K, x2 = 0.3078 | 1176.7 | –
293.15 K, x2 = 0.3563 | 1178.7 | 205.2
293.15 K, x2 = 0.3998 | 1180.1 | 217.4
293.15 K, x2 = 0.5121 | 1183 | 249.2
293.15 K, x2 = 0.5994 | 1184.6 | 273.7
293.15 K, x2 = 0.6856 | 1185.8 | 297.7
293.15 K, x2 = 0.7863 | 1186.9 | 326.4
293.15 K, x2 = 0.8842 | 1187.7 | 353.6
293.15 K, x2 = 0.9034 | 1187.9 | 359.1
293.15 K, x2 = 0.941 | 1188.2 | 369.8
298.15 K, x2 = 0 | 1133.4 | 106.9
298.15 K, x2 = 0.0517 | 1147.4 | 120.5
298.15 K, x2 = 0.1038 | 1156 | 134.7
298.15 K, x2 = 0.1952 | 1165.4 | 160.4
298.15 K, x2 = 0.3078 | 1172.2 | –
298.15 K, x2 = 0.3563 | 1174.3 | 206
298.15 K, x2 = 0.3998 | 1175.9 | 218.3
298.15 K, x2 = 0.5121 | 1179 | 250.2
298.15 K, x2 = 0.5994 | 1180.7 | 274.8
298.15 K, x2 = 0.6856 | 1182.1 | 299
298.15 K, x2 = 0.7863 | 1183.3 | 327.8
298.15 K, x2 = 0.8842 | 1184.2 | 355.3
298.15 K, x2 = 0.9034 | 1184.4 | 360.8
298.15 K, x2 = 0.941 | 1184.8 | 371.6
303.15 K, x2 = 0 | 1126.6 | 107.3
303.15 K, x2 = 0.0517 | 1141.3 | 120.9
303.15 K, x2 = 0.1038 | 1150.5 | 135.2
303.15 K, x2 = 0.1952 | 1160.4 | 161
303.15 K, x2 = 0.3078 | 1167.8 | –
303.15 K, x2 = 0.3563 | 1170 | 206.9
303.15 K, x2 = 0.3998 | 1171.6 | 219.3
303.15 K, x2 = 0.5121 | 1175 | 251.4
303.15 K, x2 = 0.5994 | 1176.9 | 276.2
303.15 K, x2 = 0.6856 | 1178.3 | 300.6
303.15 K, x2 = 0.7863 | 1179.7 | 329.6
303.15 K, x2 = 0.8842 | 1180.7 | 357.3
303.15 K, x2 = 0.9034 | 1180.9 | 362.9
303.15 K, x2 = 0.941 | 1181.3 | 373.7
308.15 K, x2 = 0 | 1119.7 | 107.7
308.15 K, x2 = 0.0517 | 1135.3 | 121.3
308.15 K, x2 = 0.1038 | 1144.9 | 135.7
308.15 K, x2 = 0.1952 | 1155.5 | 161.8
308.15 K, x2 = 0.3078 | 1163.3 | –
308.15 K, x2 = 0.3563 | 1165.7 | 208
308.15 K, x2 = 0.3998 | 1167.4 | 220.5
308.15 K, x2 = 0.5121 | 1171 | 252.8
308.15 K, x2 = 0.5994 | 1173.1 | 277.9
308.15 K, x2 = 0.6856 | 1174.6 | 302.5
308.15 K, x2 = 0.7863 | 1176.1 | 331.7
308.15 K, x2 = 0.8842 | 1177.2 | 359.7
308.15 K, x2 = 0.9034 | 1177.4 | 365.3
308.15 K, x2 = 0.941 | 1177.9 | 376.2
313.15 K, x2 = 0 | 1112.9 | 108.2
313.15 K, x2 = 0.0517 | 1129.2 | 121.9
313.15 K, x2 = 0.1038 | 1139.4 | 136.4
313.15 K, x2 = 0.1952 | 1150.6 | 162.5
313.15 K, x2 = 0.3078 | 1158.8 | –
313.15 K, x2 = 0.3563 | 1161.4 | 209.2
313.15 K, x2 = 0.3998 | 1163.2 | 221.9
313.15 K, x2 = 0.5121 | 1167 | 254.4
313.15 K, x2 = 0.5994 | 1169.2 | 279.8
313.15 K, x2 = 0.6856 | 1170.9 | 304.6
313.15 K, x2 = 0.7863 | 1172.5 | 334.1
313.15 K, x2 = 0.8842 | 1173.7 | 362.4
313.15 K, x2 = 0.9034 | 1174 | 368.1
313.15 K, x2 = 0.941 | 1174.4 | 379
318.15 K, x2 = 0 | 1106 | 108.6
318.15 K, x2 = 0.0517 | 1123.1 | 122.4
318.15 K, x2 = 0.1038 | 1133.9 | 137.1
318.15 K, x2 = 0.1952 | 1145.6 | 163.5
318.15 K, x2 = 0.3078 | 1154.4 | –
318.15 K, x2 = 0.3563 | 1157.1 | 210.6
318.15 K, x2 = 0.3998 | 1159.1 | 223.5
318.15 K, x2 = 0.5121 | 1163.1 | 256.3
318.15 K, x2 = 0.5994 | 1165.4 | 281.9
318.15 K, x2 = 0.6856 | 1167.2 | 307
318.15 K, x2 = 0.7863 | 1169 | 336.8
318.15 K, x2 = 0.8842 | 1170.3 | 365.5
318.15 K, x2 = 0.9034 | 1170.5 | 371.1
318.15 K, x2 = 0.941 | 1171 | 382.3
